# Legend:
# [1] = system: rice; experiment: Test B flood test rice; format: in vivo, Oryza sativa
# Procedure, shortened: (§1)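 Flood test on plants grown to the 2-leaf stage; treated plants kept in greenhouse twelve to sixteen days, then visually rated against controls on a 0 (no effect) to 10 (complete control) scale.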
# [2] = system: bamyardgrass; experiment: Test B flood test barnyardgrass; format: in vivo, Echinochloa crus-galli
# Procedure, shortened: as §1
# [3] = system: sugar beet; experiment: Test B pre/postemergence sugar beet; format: in vivo, Beta vulgaris
# Procedure, shortened: (§2)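 Response is a visual 0-to-10 score relative to untreated plants, where 0 means no effect and 10 means complete control, taken twelve to sixteen days after application. Treatments went onto soil at planting and onto foliage of 1- to 4-leaf plants, using a surfactant-containing non-phytotoxic solvent.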
# [4] = system: smallflower flatsedge; experiment: Test B flood test smallflower flatsedge; format: in vivo, Cyperus difformis
# Procedure, shortened: as §1
# [5] = system: rape; experiment: Test B pre/postemergence rape; format: in vivo, Brassica napus
# Procedure, shortened: as §2
# [6] = system: blackgrass; experiment: Test B pre/postemergence blackgrass; format: in vivo, Alopecurus myosuroides
# Procedure, shortened: as §2
# [7] = system: surinam grass; experiment: Test B pre/postemergence surinam grass; format: in vivo, Brachiaria decumbens
# Procedure, shortened: as §2
# [8] = system: morningglory; experiment: Test B pre/postemergence morningglory; format: in vivo, Ipomoea hederacea
# Procedure, shortened: as §2
# [9] = system: purple nutsedge; experiment: Test B pre/postemergence purple nutsedge; format: in vivo, Cyperus rotundus
# Procedure, shortened: as §2
# [10] = system: wild oat; experiment: Test B pre/postemergence wild oat; format: in vivo, Avena fatua
# Procedure, shortened: as §2
# [11] = system: bedstraw; experiment: Test B pre/postemergence bedstraw; format: in vivo, Galium aparine
# Procedure, shortened: as §2
# [12] = system: giant foxtail; experiment: Test B pre/postemergence giant foxtail; format: in vivo, Setaria faberii
# Procedure, shortened: as §2
# [13] = system: wheat; experiment: Test B pre/postemergence wheat; format: in vivo, Triticum aestivum
# Procedure, shortened: as §2
# [14] = system: corn; experiment: Test B pre/postemergence corn; format: in vivo, Zea mays
# Procedure, shortened: as §2
# [15] = system: pigweed; experiment: Test B pre/postemergence pigweed; format: in vivo, Amaranthus retroflexus
# Procedure, shortened: as §2
# [16] = system: crabgrass; experiment: Test B pre/postemergence crabgrass; format: in vivo, Digitaria sanguinalis
# Procedure, shortened: as §2
# [17] = Postemergence (flood test species), Rate 125 g/ha, scale of 0 to 10 where 0 is no effect and 10 is complete control
# [18] = Rate 62 g/ha, Postemergence section, flood test species, scale of 0 to 10 where 0 is no effect and 10 is complete control
# [19] = Rate 250 g/ha, Postemergence (flood test), scale 0 to 10, 0 is no effect, 10 is complete control
# [20] = Rate 500 g/ha, listed under Postemergence (flood test species), scale 0 to 10
# [21] = Postemergence, Rate 125 g/ha, scale of 0 to 10 where 0 is no effect and 10 is complete control
# [22] = Preemergence, Rate 62 g/ha, scale 0 to 10 (0 no effect, 10 complete control)
# [23] = Preemergence, Rate 125 g/ha, 0 is no effect, 10 is complete control
# [24] = Preemergence, Rate 250 g/ha, scale 0 to 10, 0 is no effect, 10 is complete control
# [25] = Preemergence, Rate 500 g/ha, scale 0 to 10 (0 no effect, 10 complete control)
# [26] = Rate 62 g/ha, Postemergence, scale of 0 to 10 where 0 is no effect and 10 is complete control
# [27] = Rate 250 g/ha, Postemergence, scale 0 to 10, 0 is no effect, 10 is complete control
# [28] = Rate 500 g/ha, Postemergence, scale 0 to 10
structure (smiles),measurement,setting,value
CC(C)c1noc(C(C)C)c1-n1c(=O)on(C(=O)N(c2ccc(F)cc2)C(C)C)c1=O [Compound 135],Rice plant response rating,[1]; [17],0
same,Rice plant response rating,[1]; [18],0
same,"Plant response rating, Rice",[1]; [19],0
same,Rice plant response rating,[1]; [20],0
same,Barnyardgrass plant response rating,[2]; [17],0
same,Barnyardgrass plant response rating,[2]; [18],0
same,"Plant response rating, Barnyardgrass",[2]; [19],0
same,Barnyardgrass plant response rating,"[2]; Rate 500 g/ha, listed under Postemergence (flood test species), scale 0 to 10, 0 no effect, 10 complete control",0
same,Sugarbeets plant response rating,[3]; [21],0
same,Sugarbeets plant response rating,[3]; [22],0
same,Sugarbeets plant response rating (0 to 10 scale),[3]; [23],0
same,Sugarbeets plant response rating,[3]; [24],0
same,Sugarbeets plant response rating,[3]; [25],0
same,Sugarbeets plant response rating,[3]; [26],0
same,"Plant response rating, Sugarbeets",[3]; [27],0
same,Sugarbeets plant response rating,[3]; [28],0
same,S. Flatsedge plant response rating,[4]; [17],0
same,S. Flatsedge plant response rating,[4]; [18],0
same,"Plant response rating, S. Flatsedge",[4]; [19],0
same,S. Flatsedge plant response rating,[4]; [20],0
same,Rape plant response rating,[5]; [21],0
same,Rape plant response rating,[5]; [22],0
same,Rape plant response rating (0 to 10 scale),[5]; [23],0
same,Rape plant response rating,[5]; [24],0
same,Rape plant response rating,[5]; [25],0
same,Rape plant response rating,[5]; [26],0
same,"Plant response rating, Rape",[5]; [27],0
same,Rape plant response rating,[5]; [28],0
same,Blackgrass plant response rating,[6]; [21],0
same,Blackgrass plant response rating,[6]; [22],0
same,Blackgrass plant response rating (0 to 10 scale),[6]; [23],0
same,Blackgrass plant response rating,[6]; [24],0
same,Blackgrass plant response rating,[6]; [25],4
same,Blackgrass plant response rating,[6]; [26],0
same,"Plant response rating, Blackgrass",[6]; [27],0
same,Blackgrass plant response rating,[6]; [28],0
same,B. signalgrass plant response rating,[7]; [21],0
same,B. signalgrass plant response rating,[7]; [22],0
same,B. signalgrass plant response rating (0 to 10 scale),[7]; [23],0
same,B. signalgrass plant response rating,[7]; [24],3
same,B. signalgrass plant response rating,[7]; [25],4
same,B. signalgrass plant response rating,[7]; [26],0
same,"Plant response rating, B. signalgrass",[7]; [27],0
same,B. signalgrass plant response rating,"[7]; Rate 500 g/ha, Postemergence, scale of 0 to 10 where 0 is no effect and 10 is complete control",0
same,Morningglory plant response rating,[8]; [21],1
same,Morningglory plant response rating,[8]; [22],0
same,Morningglory plant response rating (0 to 10 scale),[8]; [23],0
same,Morningglory plant response rating,[8]; [24],0
same,Morningglory plant response rating,[8]; [25],0
same,Morningglory plant response rating,[8]; [26],0
same,"Plant response rating, Morningglory",[8]; [27],1
same,Morningglory plant response rating,[8]; [28],1
same,Nutsedge plant response rating,[9]; [21],0
same,Nutsedge plant response rating,[9]; [22],0
same,Nutsedge plant response rating (0 to 10 scale),[9]; [23],0
same,Nutsedge plant response rating,[9]; [24],0
same,Nutsedge plant response rating,[9]; [25],0
same,Nutsedge plant response rating,[9]; [26],0
same,"Plant response rating, Nutsedge",[9]; [27],0
same,Nutsedge plant response rating,[9]; [28],0
same,Wild oats plant response rating,[10]; [21],0
same,Wild oats plant response rating,[10]; [22],0
same,Wild oats plant response rating (0 to 10 scale),[10]; [23],0
same,Wild oats plant response rating,[10]; [24],0
same,Wild oats plant response rating,[10]; [25],0
same,Wild oats plant response rating,[10]; [26],0
same,"Plant response rating, Wild oats",[10]; [27],0
same,Wild oats plant response rating,[10]; [28],0
same,Bedstraw plant response rating,[11]; [21],0
same,Bedstraw plant response rating (0 to 10 scale),[11]; [23],0
same,Bedstraw plant response rating,[11]; [24],0
same,Bedstraw plant response rating,[11]; [25],4
same,Bedstraw plant response rating,[11]; [26],0
same,"Plant response rating, Bedstraw",[11]; [27],2
same,Giant foxtail plant response rating,[12]; [21],0
same,Giant foxtail plant response rating,[12]; [22],0
same,Giant foxtail plant response rating (0 to 10 scale),[12]; [23],0
same,Giant foxtail plant response rating,[12]; [24],0
same,Giant foxtail plant response rating,[12]; [26],0
same,"Plant response rating, Giant foxtail",[12]; [27],0
same,Giant foxtail plant response rating,[12]; [28],0
same,Wheat plant response rating,[13]; [21],0
same,Wheat plant response rating,[13]; [22],0
same,Wheat plant response rating (0 to 10 scale),[13]; [23],0
same,Wheat plant response rating,[13]; [24],0
same,Wheat plant response rating,[13]; [25],0
same,Wheat plant response rating,[13]; [26],0
same,"Plant response rating, Wheat",[13]; [27],0
same,Wheat plant response rating,[13]; [28],0
same,Corn plant response rating,[14]; [21],0
same,Corn plant response rating,[14]; [22],0
same,Corn plant response rating (0 to 10 scale),[14]; [23],0
same,Corn plant response rating,[14]; [24],0
same,Corn plant response rating,[14]; [25],0
same,Corn plant response rating,[14]; [26],0
same,"Plant response rating, Corn",[14]; [27],0
same,Corn plant response rating,[14]; [28],0
same,Redroot pigweed plant response rating,[15]; [21],0
same,Redroot pigweed plant response rating (0 to 10 scale),[15]; [23],3
same,Redroot pigweed plant response rating,[15]; [24],4
same,Redroot pigweed plant response rating,[15]; [25],4
same,Redroot pigweed plant response rating,[15]; [26],0
same,"Plant response rating, Redroot pigweed",[15]; [27],0
same,Redroot pigweed plant response rating,[15]; [28],0
same,Crabgrass plant response rating,[16]; [21],0
same,Crabgrass plant response rating,[16]; [22],0
same,Crabgrass plant response rating (0 to 10 scale),[16]; [23],0
same,Crabgrass plant response rating,[16]; [24],0
same,Crabgrass plant response rating,[16]; [25],4
same,Crabgrass plant response rating,[16]; [26],0
same,"Plant response rating, Crabgrass",[16]; [27],0
